Laboratory results: ChEMBL document CHEMBL1158447, “Substituted benzimidazoles: A novel chemotype for small molecule hKSP inhibitors” (Bioorg Med Chem Lett, 2009)
Calls of active or inactive are those of the source. No cut-off for these calls is given here.

What was measured:
Cytochrome P450 2C9 [1] = target: T1, Cytochrome P450 2C9 (Homo sapiens, UniProt P11712); test: Inhibition of CYP2C9 coincubated with compound; type: ADME
[2] = target: Kinesin-like protein KIF11 (Homo sapiens) (UniProt P52732); test: Selectivity for human KSP over HSET
Cytochrome P450 2D6 [3] = target: T2, Cytochrome P450 2D6 (Homo sapiens, UniProt P10635); test: Inhibition of CYP2D6 preincubated with compound; type: ADME
T2 sequence (P10635 whole entry): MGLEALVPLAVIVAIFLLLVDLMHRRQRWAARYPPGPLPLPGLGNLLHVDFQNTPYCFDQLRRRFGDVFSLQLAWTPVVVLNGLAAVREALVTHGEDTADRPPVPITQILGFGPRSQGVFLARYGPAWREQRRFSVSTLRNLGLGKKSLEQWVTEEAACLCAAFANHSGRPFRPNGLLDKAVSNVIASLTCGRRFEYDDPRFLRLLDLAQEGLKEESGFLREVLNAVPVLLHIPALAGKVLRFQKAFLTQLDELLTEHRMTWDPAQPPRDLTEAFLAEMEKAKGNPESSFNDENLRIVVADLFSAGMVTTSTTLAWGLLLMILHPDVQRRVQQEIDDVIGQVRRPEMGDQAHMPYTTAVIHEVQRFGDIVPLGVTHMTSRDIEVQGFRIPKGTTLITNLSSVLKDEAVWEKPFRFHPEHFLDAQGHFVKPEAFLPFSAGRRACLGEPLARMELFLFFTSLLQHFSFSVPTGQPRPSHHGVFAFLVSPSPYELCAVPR

A2780 [4] = test: Antiproliferative activity against human A2780 cells assessed s occurrence of monostral phenotype at 25 uM after 48 hrs by Almar blue assay; type: functional, cell-based
Cytochrome P450 3A4 [5] = target: T3, Cytochrome P450 3A4 (Homo sapiens, UniProt P08684); test: Inhibition of CYP3A4 preincubated with compound; type: ADME
T3 sequence (P08684 whole entry): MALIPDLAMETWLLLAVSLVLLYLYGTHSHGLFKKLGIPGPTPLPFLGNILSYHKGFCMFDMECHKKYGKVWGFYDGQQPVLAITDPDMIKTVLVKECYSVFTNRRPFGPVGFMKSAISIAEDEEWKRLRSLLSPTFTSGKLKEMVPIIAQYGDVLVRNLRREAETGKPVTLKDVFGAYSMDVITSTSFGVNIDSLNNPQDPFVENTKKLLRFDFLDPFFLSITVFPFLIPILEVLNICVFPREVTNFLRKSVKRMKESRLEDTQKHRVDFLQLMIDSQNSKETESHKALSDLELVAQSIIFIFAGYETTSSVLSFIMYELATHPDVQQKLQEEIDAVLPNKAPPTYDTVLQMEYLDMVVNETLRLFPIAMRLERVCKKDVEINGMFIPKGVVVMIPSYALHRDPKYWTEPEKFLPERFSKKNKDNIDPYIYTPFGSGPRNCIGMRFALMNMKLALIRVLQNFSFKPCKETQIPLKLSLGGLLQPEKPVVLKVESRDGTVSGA

A2780 [6] = test: Antiproliferative activity against human A2780 cells after 48 hrs by Almar blue assay; type: functional, cell-based; details: A2780, 48 h
Cytochrome P450 3A4 [7] = target: T3, Cytochrome P450 3A4; test: Inhibition of CYP3A4 coincubated with compound; type: ADME
[8] = target: T4, Kinesin-like protein KIF3B (Homo sapiens, UniProt O15066); test: Inhibition of Kif3B
T4 sequence (O15066 whole entry): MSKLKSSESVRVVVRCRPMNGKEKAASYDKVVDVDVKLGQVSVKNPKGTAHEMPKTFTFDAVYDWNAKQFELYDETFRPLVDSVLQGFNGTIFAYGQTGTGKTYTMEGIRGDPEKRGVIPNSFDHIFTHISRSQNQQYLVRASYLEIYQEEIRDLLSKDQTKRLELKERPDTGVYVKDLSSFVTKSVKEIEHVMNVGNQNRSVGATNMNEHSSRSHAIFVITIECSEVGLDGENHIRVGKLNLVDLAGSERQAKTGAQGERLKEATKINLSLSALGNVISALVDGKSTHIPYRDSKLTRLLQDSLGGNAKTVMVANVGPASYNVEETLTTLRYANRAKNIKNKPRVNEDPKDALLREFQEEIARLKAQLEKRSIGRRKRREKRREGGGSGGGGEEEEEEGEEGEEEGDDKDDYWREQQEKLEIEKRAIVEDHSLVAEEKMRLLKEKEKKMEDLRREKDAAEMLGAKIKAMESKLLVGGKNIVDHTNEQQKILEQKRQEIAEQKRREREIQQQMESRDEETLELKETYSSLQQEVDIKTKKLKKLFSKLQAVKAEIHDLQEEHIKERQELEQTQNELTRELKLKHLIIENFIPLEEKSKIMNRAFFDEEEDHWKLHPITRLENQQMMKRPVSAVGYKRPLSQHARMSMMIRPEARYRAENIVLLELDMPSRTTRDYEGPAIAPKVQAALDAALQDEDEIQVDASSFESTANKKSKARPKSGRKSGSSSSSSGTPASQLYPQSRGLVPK

[9] = Permeability across human Caco-2 cell membrane; type: ADME, cell-based; details: read-out: permeability
Cytochrome P450 2C9 [10] = target: T1, Cytochrome P450 2C9; test: Inhibition of CYP2C9 preincubated with compound; type: ADME
[11] = target: T5, Kinesin heavy chain isoform 5A (Homo sapiens, UniProt Q12840); test: Inhibition of nKHC
T5 sequence (Q12840 whole entry): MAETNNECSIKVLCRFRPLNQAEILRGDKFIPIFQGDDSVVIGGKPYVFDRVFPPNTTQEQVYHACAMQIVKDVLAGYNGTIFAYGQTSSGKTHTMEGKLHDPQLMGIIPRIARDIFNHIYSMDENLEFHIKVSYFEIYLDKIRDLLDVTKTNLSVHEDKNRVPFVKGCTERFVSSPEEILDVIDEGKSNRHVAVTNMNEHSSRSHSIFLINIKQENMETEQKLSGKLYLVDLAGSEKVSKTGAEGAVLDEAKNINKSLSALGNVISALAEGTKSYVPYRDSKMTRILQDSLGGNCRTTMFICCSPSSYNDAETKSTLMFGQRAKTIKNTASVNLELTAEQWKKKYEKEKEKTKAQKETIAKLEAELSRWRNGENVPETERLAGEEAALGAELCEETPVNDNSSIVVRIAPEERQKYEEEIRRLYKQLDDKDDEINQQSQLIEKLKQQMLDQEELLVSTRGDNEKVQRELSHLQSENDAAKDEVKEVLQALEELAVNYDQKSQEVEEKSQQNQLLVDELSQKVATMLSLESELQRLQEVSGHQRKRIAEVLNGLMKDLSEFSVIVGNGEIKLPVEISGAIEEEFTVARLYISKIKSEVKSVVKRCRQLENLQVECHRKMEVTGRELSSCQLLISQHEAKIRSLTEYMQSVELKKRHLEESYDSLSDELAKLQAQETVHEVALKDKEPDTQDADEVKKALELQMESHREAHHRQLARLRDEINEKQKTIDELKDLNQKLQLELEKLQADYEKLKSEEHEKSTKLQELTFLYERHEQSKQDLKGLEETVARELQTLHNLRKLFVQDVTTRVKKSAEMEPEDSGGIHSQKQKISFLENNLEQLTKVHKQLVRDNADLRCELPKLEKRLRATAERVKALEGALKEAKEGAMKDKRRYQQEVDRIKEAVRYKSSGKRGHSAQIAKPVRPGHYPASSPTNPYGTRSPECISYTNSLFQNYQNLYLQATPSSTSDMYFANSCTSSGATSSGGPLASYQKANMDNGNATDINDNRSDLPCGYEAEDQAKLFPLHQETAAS

Rattus norvegicus = test: AUC in rat at 10 mg/kg after 6 hrs; type: ADME, organism-based, Plasma; parameters: time < 6 hr, dose 10 mg/kg; details: in vivo
Cytochrome P450 2D6 [12] = target: T2, Cytochrome P450 2D6; test: Inhibition of CYP2D6 coincubated with compound; type: ADME
[13] = target: T6, Kinesin-like protein KIF11 (Homo sapiens, UniProt P52732); test: Inhibition of human kinesin spindle protein by endpoint assay
T6 sequence (P52732 whole entry): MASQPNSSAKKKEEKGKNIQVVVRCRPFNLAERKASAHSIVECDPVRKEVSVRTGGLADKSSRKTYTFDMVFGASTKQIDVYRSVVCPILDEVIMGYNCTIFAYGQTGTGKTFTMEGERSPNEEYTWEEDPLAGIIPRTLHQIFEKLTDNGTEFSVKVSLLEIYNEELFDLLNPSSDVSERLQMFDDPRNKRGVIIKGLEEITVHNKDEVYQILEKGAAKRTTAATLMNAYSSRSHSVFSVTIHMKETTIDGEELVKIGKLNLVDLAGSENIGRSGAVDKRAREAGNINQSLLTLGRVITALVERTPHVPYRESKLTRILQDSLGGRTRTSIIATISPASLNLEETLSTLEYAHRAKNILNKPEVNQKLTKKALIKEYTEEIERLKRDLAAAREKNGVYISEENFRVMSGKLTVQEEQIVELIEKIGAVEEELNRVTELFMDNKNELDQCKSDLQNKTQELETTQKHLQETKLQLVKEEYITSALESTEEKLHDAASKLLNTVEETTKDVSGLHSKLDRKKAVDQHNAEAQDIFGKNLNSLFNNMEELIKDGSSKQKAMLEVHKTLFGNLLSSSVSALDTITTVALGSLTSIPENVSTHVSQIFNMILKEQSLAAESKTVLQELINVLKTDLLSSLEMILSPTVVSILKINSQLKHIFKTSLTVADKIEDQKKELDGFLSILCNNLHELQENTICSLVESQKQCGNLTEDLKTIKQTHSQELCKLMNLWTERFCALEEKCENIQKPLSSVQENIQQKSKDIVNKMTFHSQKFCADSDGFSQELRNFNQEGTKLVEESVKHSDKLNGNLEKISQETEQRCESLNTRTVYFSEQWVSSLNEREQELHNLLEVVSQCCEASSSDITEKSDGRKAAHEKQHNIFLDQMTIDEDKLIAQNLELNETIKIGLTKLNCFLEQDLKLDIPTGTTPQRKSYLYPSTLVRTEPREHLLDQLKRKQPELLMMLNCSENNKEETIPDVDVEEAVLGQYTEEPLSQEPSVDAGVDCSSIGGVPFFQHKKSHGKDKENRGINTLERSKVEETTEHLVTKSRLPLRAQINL

T1 sequence (P11712 whole entry): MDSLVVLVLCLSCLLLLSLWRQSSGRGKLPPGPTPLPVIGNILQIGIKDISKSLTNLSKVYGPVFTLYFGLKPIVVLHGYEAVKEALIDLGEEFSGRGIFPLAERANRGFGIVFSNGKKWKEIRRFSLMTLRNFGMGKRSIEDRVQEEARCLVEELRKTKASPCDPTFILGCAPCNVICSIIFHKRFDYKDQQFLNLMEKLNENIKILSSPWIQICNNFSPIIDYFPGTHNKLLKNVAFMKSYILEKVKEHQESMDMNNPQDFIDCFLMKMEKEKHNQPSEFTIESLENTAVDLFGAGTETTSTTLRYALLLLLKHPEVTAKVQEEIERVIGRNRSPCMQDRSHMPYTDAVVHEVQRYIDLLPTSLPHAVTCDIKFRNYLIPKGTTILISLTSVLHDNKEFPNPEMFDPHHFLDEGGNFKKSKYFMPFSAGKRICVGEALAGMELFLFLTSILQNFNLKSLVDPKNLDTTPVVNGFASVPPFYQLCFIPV

IC50 (Cytochrome P450 2C9 [1]) | fold change (FC) [2] | IC50 (Cytochrome P450 2D6 [3]) | IC50 (Cytochrome P450 3A4 [5]) | IC50 (A2780 [6]) | IC50 (Cytochrome P450 3A4 [7]) | IC50 [8] | Papp [9] | IC50 (Cytochrome P450 2C9 [10]) | IC50 [11] | AUC (Rattus norvegicus) | IC50 (Cytochrome P450 2D6 [12]) | IC50 [13] | Compound | Activity (A2780 [4])
14 µM | 8 | > 15 µM | < 15 µM | 16 µM | > 30 µM | > 50 µM | 53 ×10⁻⁶ cm/s | > 7 µM | > 50 µM | 150 nM·h | > 30 µM | 520 nM | CSc1ccc(Nc2nc3cc(C(N)=O)ccc3n2Cc2ccccc2C(F)(F)F)cc1 | Active
15 µM |  | > 15 µM | > 20 µM |  | > 30 µM | > 50 µM | 1.8 ×10⁻⁶ cm/s | > 8 µM | > 50 µM | 0 nM·h | > 30 µM | 4800 nM | CS(=O)(=O)c1ccc(Nc2nc3cc(C(N)=O)ccc3n2Cc2ccccc2C(F)(F)F)cc1 | 
8 µM |  | > 15 µM | > 15 µM | 19 µM | > 30 µM | > 50 µM | 67 ×10⁻⁶ cm/s | > 4 µM | > 50 µM | 600 nM·h | > 30 µM | 2500 nM | COc1ccc(Nc2nc3cc(C(N)=O)ccc3n2Cc2ccccc2C(F)(F)F)cc1 | Active
